Laboratory results reported in US9072778B2, “Treatment regimen for N-MYC, c-MYC, and L-MYC amplified and overexpressed tumors” (UNIVERSITY OF HAWAII, priority 2005, dated 2015).

How the values were obtained:
[1] = tested on: LAN-1 cells; assay: Cell cycle phase distribution (propidium iodide), LAN-1; format: cell-based, human; settings: DFMO = 5 mM, SAM486A = 10 μM, Spd = 10 μM, mean ± SD
From the text: This profile, which is typical for cell cycle arrest at G1, was enhanced by the combination of both inhibitors, with the majority of cells in G1 (˜71-73%), a reduced number of cells in S phase (˜20-28%), and a small portion in G2/M (˜2-7%).
(§1) Human NB cell lines were provided by Dr. Robert Seeger (LAN-1; University of California, Los Angeles, Calif.), Dr. Nai-Kong Cheung (NMB-7; Memorial Sloan-Kettering Cancer Center, NY), and the American Type Culture Collection (SK-N-SH; ATCC, Manassas, Va.). Cells were maintained in RPMI 1640 (Biosource, Rockeville, Md.) containing 10% heat-inactivated fetal bovine serum (FBS) (Invitrogen, Carlsbad, Calif.), penicillin (100 IU/ml) and streptomycin (100 μg/ml). If cells were treated with exogenous Spd, 1 mM of aminoguanidine was included as an inhibitor of serum polyamine oxidation. […] For growth and proliferation inhibition, polyamine pool, and cell cycle studies, 10 μM Spd was added together with inhibitors, and cells were assayed on days 2 and/or 3.

[2] = tested on: retinoblastoma protein Rb; assay: Western blot of Rb phosphorylation in inhibitor-treated NB cells; format: cell-based, human; settings: LAN-1 and NMB-7; days 2 and 3
Procedure: To further investigate the mechanism that regulates G1 arrest in LAN-1 and NMB-7 cells, and to define the changes in associated protein responses, the cell cycle-related proteins p21^Waf1/Cip1, p27^Kip1, p53, Rb, and MYCN in NB cell lysates were studied. Cells were analyzed on days 1, 2, and 3. Equal amounts of total protein were loaded in all experiments. Proteins were scanned and the ratio of hypophosphorylated Rb (pRb) (lower band):hyperphosphorylated Rb (ppRb) (upper band) was calculated (b). MYCN bands were quantified and normalized relative to β-actin. Values are presented as percentage (%) of controls of day 1, 2 or 3. (c). The data are representative of at least three independent experiments.
The retinoblastoma protein Rb can be regulated through the action of p27^Kip1. Rb phosphorylation reduces the levels of functional Rb/E2F repressor complexes and activates E2F-responsive promoters important for moving the cell through the G1/S phase of the cell cycle. […] Rb hypophosphorylation was further confirmed with total Rb showing a visible mobility shift from a hyperphosphorylated form (upper band) to a hypophosphorylated form (lower band). […] Hypophosphorylation of Rb is a known consequence of p27^Kip1 induction, and this is in strong agreement with our findings.

[3] = target: T1, AdoMetDC (Homo sapiens, UniProt P17707); assay: AdoMetDC enzyme activity in lysates of inhibitor-treated NB cells; format: cell-based; settings: for Specific enzyme activity ADOMETDC: DFMO = 5 mM, SAM486A = 10 μM, mean ± SD
T1 construct: processed AdoMetDC α chain (31 kDa) proteins were detected at the expected size in LAN-1 and NMB-7 cells; endogenous in cells; host or cells: LAN-1 and NMB-7 human neuroblastoma cells (LAN-1 only for the Western blot of treated cells)
T1 sequence (P17707 68-334 limits assumed): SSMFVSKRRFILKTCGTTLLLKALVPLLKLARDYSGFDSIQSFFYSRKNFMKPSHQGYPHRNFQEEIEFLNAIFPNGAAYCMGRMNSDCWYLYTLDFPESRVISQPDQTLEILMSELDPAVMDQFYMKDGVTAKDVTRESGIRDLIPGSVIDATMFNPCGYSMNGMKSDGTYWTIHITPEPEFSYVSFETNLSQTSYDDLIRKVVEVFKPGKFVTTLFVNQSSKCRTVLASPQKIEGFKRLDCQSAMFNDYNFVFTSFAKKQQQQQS
T1 sequence (P17707 1-67 limits assumed): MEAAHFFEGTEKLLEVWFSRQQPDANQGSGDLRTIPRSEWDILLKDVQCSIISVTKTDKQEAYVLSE
Procedure: Under identical experimental conditions, AdoMetDC activity was determined.
as §1
ODC and AdoMetDC enzyme activities were determined using a standard assay known in the art. In brief, NB cells were washed twice with ice-cold PBS and harvested in 50 mM sodium phosphate buffer (pH 7.2), 0.1 mM EDTA, 2.5 mM DTT, supplemented with 1× protease inhibitor cocktail (Roche Molecular Biochemicals, Indianapolis, Ind.). For the measurement of AdoMetDC activity, cells were harvested in the above buffer supplemented with 2.5 mM Put. Cells were lysed by three freeze/thaw cycles and cell lysates were prepared by centrifugation for 20 minutes at 14,000 rpm and 4° C. ODC activity was measured in a reaction mixture that contained 20 μM L-[1-^14C]ornithine (47.70 mCi/mmol; NEN Life Science Products, Boston, Mass.). AdoMetDC activity was assayed in a reaction mixture that contained 8.2 μM S-adenosyl-L-[carboxy-^14C]methionine (58.0-61.0 mCi/mmol; Amersham Biosciences, Piscataway, N.J.) and 140.1 μM cold S-adenosylmethionine. […] Untreated or SAM486A-treated LAN-1 extracts were assayed for AdoMetDC activity after multiple rounds of sequential dilution with harvest buffer followed by concentration of the extract (Centricon YM-10, Millipore Corporation, Bedford, Mass.) to remove the inhibitor.

[4] = tested on: NMB-7 cells; assay: Polyamine pool analysis in inhibitor-treated NMB-7 cells; format: cell-based, human; settings: DFMO = 5 mM, SAM486A = 10 μM, Spd = 10 μM
Procedure: Combined inhibition of both enzymes decreased polyamine pools to various degrees, and exogenous supplementation of Spd (10 μM) to cell cultures led to a substantial increase in Spd. […] In untreated control cells, the levels of Put and Spd decreased during exponential cell growth and proliferation (day 0 to day 3), which is also consistent with a decrease in ODC and AdoMetDC enzyme activities (FIGS. 3d and 3e). Spm levels decreased in untreated LAN-1 cells and remained the same in NMB-7 cells (Table 1).
as §1
Intracellular polyamines were extracted from cell pellets by a method known in the art. In brief, cells were washed and centrifuged. After sonication and centrifugation, 250 μl of supernatant, 100 μl of saturated sodium carbonate, and 300 μl of 25 mg/ml dansyl chloride (5-dimethylamino-naphthalene-1-sulfonyl chloride) (Fluka, Switzerland) were mixed and analyzed via reverse phase HPLC using a C18 reverse-phase analytical column (Waters, Milford, Mass.). The effluent from the column was monitored at 510 nm (excitation at 330 nm). Polyamine levels were determined using appropriate standards. The samples were normalized in 0.2 N sodium hydroxide and the amount of total protein per sample was measured using the Bradford assay (70). Polyamine levels are expressed as nmol per mg of total cellular protein.

SMILES	Cell cycle G1 ([1]; LAN-1, day 2) [% TOTAL CELLS]	Cell cycle G2/M ([1]; LAN-1, day 2) [% TOTAL CELLS]	Cell cycle S ([1]; LAN-1, day 2) [% TOTAL CELLS]	Cell cycle G1 ([1]; LAN-1, day 3) [% TOTAL CELLS]	Cell cycle G2/M ([1]; LAN-1, day 3) [% TOTAL CELLS]	Cell cycle S ([1]; LAN-1, day 3) [% TOTAL CELLS]	Rb phosphorylation (Ser795, Ser807/811) [2]	Specific enzyme activity ADOMETDC ([3]; LAN-1, 2 days after treatment) [% OF CONTROL]	Specific enzyme activity ADOMETDC ([3]; NMB-7, 2 days after treatment) [% OF CONTROL]	Polyamine pools PUT ([4]; NMB-7, Day 2) [NMOL/MG TOTAL PROTEIN]	Polyamine pools SPD ([4]; NMB-7, Day 2) [NMOL/MG TOTAL PROTEIN]	Polyamine pools SPM ([4]; NMB-7, Day 2) [NMOL/MG TOTAL PROTEIN]	Polyamine pools PUT ([4]; NMB-7, Day 3) [NMOL/MG TOTAL PROTEIN]	Polyamine pools SPD ([4]; NMB-7, Day 3) [NMOL/MG TOTAL PROTEIN]	Polyamine pools SPM ([4]; NMB-7, Day 3) [NMOL/MG TOTAL PROTEIN]	increase of measured AdoMetDC activity after sequential dilution and concentration of lysates to remove residual inhibitor ([3]; SAM486A-treated LAN-1 extracts, data not shown) [fold]
NCCC[C@](N)(C(=O)O)C(F)F [DFMO, α-difluoromethylornithine]	62.1 ± 10.4	11.5 ± 3.0	26.4 ± 7.5	63.1 ± 12.2	6.2 ± 4.1	30.8 ± 8.2	strong hypophosphorylation of Rb	689 ± 94	582 ± 67	0.1	1.9	9.3	0.0	1.4	8.6	–
N=C(N)c1cccc2c1CC/C2=N\N=C(N)N [SAM486A, 4-amidinoindan-1-one 2′-amidinohydrazone]	58.7 ± 8.3	9.6 ± 3.2	31.7 ± 6.8	53.3 ± 5.1	9.3 ± 2.0	37.4 ± 3.5	much less pronounced	169 ± 9	200 ± 16	69.6	5.6	3.9	259.5	5.5	3.6	~100
